Assay results reported in the Kinase Knowledgebase extract (Sharma et al. 2016).

These compounds were tested against EGFR (human) (UniProt P00533).
Sequence of EGFR (human) (P00533 whole entry, looked up): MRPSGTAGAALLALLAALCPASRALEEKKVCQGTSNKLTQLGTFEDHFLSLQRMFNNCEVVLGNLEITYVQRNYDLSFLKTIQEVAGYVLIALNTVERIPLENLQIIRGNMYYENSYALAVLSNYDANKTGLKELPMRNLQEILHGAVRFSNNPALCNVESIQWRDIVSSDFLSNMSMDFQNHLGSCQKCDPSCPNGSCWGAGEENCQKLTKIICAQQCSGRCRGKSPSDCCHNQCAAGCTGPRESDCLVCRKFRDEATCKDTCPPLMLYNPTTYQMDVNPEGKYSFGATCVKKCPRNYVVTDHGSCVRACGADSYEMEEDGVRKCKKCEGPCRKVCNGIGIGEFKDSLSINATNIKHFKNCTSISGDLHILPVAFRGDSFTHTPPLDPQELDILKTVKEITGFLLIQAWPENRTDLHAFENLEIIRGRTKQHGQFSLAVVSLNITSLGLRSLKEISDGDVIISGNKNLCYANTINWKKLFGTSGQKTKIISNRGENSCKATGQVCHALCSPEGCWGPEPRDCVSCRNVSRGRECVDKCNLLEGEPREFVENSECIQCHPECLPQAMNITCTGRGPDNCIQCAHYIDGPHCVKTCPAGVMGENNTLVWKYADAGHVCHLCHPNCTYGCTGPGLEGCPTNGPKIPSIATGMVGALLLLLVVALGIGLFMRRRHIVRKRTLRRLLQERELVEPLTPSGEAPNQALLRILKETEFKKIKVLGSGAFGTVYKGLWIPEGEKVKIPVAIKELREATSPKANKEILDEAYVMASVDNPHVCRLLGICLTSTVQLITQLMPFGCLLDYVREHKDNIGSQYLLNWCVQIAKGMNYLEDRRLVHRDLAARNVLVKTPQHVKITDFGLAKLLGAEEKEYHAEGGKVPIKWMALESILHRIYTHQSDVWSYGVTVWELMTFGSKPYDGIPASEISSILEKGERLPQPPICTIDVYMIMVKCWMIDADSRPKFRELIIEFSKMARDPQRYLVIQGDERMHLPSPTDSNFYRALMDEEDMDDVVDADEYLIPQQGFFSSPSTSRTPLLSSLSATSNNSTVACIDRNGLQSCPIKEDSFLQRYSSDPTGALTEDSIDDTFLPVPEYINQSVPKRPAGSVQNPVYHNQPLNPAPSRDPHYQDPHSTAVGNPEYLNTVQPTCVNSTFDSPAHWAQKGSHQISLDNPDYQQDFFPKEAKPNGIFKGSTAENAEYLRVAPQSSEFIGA
For `COc1cc(/C=C(\C#N)C(=O)Nc2cccc(Cl)c2)cc(S(C)(=O)=O)c1O`, the IC50 was 1.4 µM.
In the case of `N#C/C(=C\c1cc(O)c(O)c(C(F)(F)F)c1)C(=O)Nc1cccc(Cl)c1`, the IC50 is reported as 2.3 µM.
Work on `Cc1cc(/C=C(\C#N)C(=O)Nc2cccc(Cl)c2)cc(C)c1O` yielded an IC50 of 0.9 µM.
For `N#C/C(=C\c1cc(O)c(O)c(F)c1)C(=O)Nc1cccc(Cl)c1`, the IC50 was 0.6 µM.
Work on `COc1cc(/C=C(\C#N)C(=O)Nc2cccc(Cl)c2)cc([N+](=O)[O-])c1O` yielded an IC50 of 1.8 µM.
In the case of `COc1cc(/C=C(\C#N)C(=O)Nc2ccccc2)cc(Br)c1O`, the IC50 is reported as 1.8 µM.
Compound `N#C/C(=C\c1cc(Br)c(O)c(Br)c1)C(=O)Nc1cccc(Cl)c1` has an IC50 of 1.1 µM.
With `COc1cc(/C=C(\C#N)C(=O)Nc2cccc(Cl)c2)ccc1O` the IC50 was 2.1 µM.
`COc1cc(/C=C(\C#N)C(=O)Nc2ccccc2)cc(Cl)c1O` gave an IC50 of 1.6 µM.
`N#C/C(=C\c1ccc(O)c(O)c1)C(=O)Nc1cccc(Cl)c1` gave an IC50 of 1.4 µM.
For `N#C/C(=C\c1cc(O)c(O)c(Br)c1Br)C(=O)Nc1cccc(Cl)c1`, the IC50 was 0.28 µM.
`Cc1cccc(NC(=O)/C(C#N)=C/c2ccc(O)c(O)c2)c1` was tested, and the IC50 was 2.1 µM.
`COc1cc(/C=C(\C#N)C(=O)Nc2cccc(Cl)c2)cc(Cl)c1O` was tested, and the IC50 was 0.68 µM.
For `N#C/C(C(=O)Nc1ccccc1)=C(\O)c1ccc(O)c(O)c1`, the IC50 was 0.96 µM.
With `COc1cc(/C=C(\C#N)C(=O)Nc2cccc(Cl)c2)cc(F)c1O` the IC50 was 1.6 µM.
`N#C/C(=C\c1cc(O)c(O)cc1[N+](=O)[O-])C(=O)Nc1cccc(Cl)c1` showed an IC50 of 0.28 µM.
`N#C/C(=C\c1cc(O)c(O)c(Cl)c1)C(=O)Nc1ccccc1` showed an IC50 of 1.2 µM.
`Cc1cc(/C=C(\C#N)C(=O)Nc2cccc(Cl)c2)cc(O)c1O` showed an IC50 of 1.3 µM.
In the case of `N#C/C(=C\c1cc(O)c(O)c(Br)c1)C(=O)Nc1cccc(Cl)c1`, the IC50 is reported as 0.49 µM.
`CCOc1cc(/C=C(\C#N)C(N)=O)cc(CSc2ccccc2)c1O` was tested, and the IC50 was 2.6 µM.
`N#C/C(=C\c1cc(O)c(O)c(Cl)c1)C(=O)Nc1cccc(Cl)c1` gave an IC50 of 0.68 µM.
In the case of `N#C/C(=C\c1cc(O)c(O)c(C#N)c1)C(=O)Nc1cccc(Cl)c1`, the IC50 is reported as 1 µM.
For `COc1cc(/C=C(\C#N)C(=O)Nc2cccc(Cl)c2)cc(C)c1O`, the IC50 was 0.42 µM.
Compound `COc1cc(/C=C(\C#N)C(=O)Nc2cccc(Cl)c2)cc(Br)c1O` has an IC50 of 1.4 µM.
